Like-named read-outs stand apart in the source and are kept apart here.
Tests used:
Type in all cases: binding
[1] = target: T1, KRAS G12D (Homo sapiens, UniProt P01116, G12D); test: HTRF assay of K-Ras G12D interaction with SOS1 (PPI-HTRF)
T1 construct: made in house; host or cells: E. coli, e.g. BL21 (DE3)
Outline: (§1)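 GST-KRas + antiGST-Eu(K); His-hSOS1 + anti-6His-XL665. Buffer ~5 mM HEPES pH 7.4/150 mM NaCl/1 mM DTT/0.05% BSA/0.0025% Igepal. Cpd in DMSO, duplicates 10–0.01 μM; ≥10 min incubation, HTRF 620/665 nm, IC50 from ratio.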

[2] = target: T2, KRAS WT (Homo sapiens, UniProt P01116); test: HTRF assay of wildtype K-Ras interaction with SOS1 (PPI-HTRF)
T2 construct: made in house; host or cells: E. coli, e.g. BL21 (DE3)
T2 sequence (P01116 1-188 isoform P01116-2): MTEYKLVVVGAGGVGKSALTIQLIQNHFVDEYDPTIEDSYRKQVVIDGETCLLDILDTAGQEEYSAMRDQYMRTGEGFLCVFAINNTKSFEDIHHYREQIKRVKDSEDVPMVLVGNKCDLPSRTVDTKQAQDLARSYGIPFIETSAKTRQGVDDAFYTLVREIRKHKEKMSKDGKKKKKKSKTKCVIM
Outline: as §1

[3] = target: T3, KRAS G12S (Homo sapiens, UniProt P01116, G12S); test: HTRF assay of K-Ras G12S interaction with SOS1 (PPI-HTRF)
T3 construct: made in house; host or cells: E. coli, e.g. BL21 (DE3)
T3 sequence (P01116 1-188 isoform P01116-2 G12S): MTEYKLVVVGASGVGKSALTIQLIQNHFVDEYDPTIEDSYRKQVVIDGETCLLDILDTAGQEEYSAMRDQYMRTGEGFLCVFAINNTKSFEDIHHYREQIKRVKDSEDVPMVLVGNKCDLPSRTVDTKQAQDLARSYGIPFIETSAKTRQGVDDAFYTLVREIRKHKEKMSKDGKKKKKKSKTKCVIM
Outline: as §1

[4] = HTRF, 5 nM KRAS G12D, read-out: PPI-HTRF-5 nM KRAS G12D
[5] = HTRF, 5 nM KRAS WT, read-out: PPI-HTRF-5 nM KRAS WT
[6] = 5 nM KRAS G12S, read-out: PPI-HTRF-5 nM KRAS G12S

T1 sequence (P01116 1-188 isoform P01116-2 G12D): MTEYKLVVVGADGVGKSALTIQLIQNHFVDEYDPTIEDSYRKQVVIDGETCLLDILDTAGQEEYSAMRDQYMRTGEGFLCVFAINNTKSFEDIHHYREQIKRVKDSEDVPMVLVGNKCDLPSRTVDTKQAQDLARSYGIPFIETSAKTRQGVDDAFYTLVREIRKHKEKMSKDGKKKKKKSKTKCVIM

| IC50 [1, 4] [µM] | IC50 [2, 5] [µM] | IC50 [3, 6] [µM] | Compound | IC50 [1] [µM] | IC50 [2] [µM] | IC50 ([3]; PPI-HTRF-5 nM KRAS G12S) [µM] |
| --- | --- | --- | --- | --- | --- | --- |
| < 5 | < 5 | < 5 | C[C@H](Oc1nc(N2CC[C@@]3(CCN3C(=O)n3cncn3)C2)c2cc(Cl)c(-c3ccc(F)c4sc(N)c(C#N)c34)c(F)c2n1)[C@@H]1CCCN1C (single isomer, unassigned) [Compound 299] |  |  |  |
| < 5 | < 5 | < 5 | N#Cc1c(NC(=O)C2CC2(F)F)sc2c(F)ccc(-c3c(F)c4nc(OC[C@@]56CCCN5C[C@H](F)C6)nc(N5CCC6(CCN6C(=O)C6CC6(F)F)C5)c4c(=O)n3C3CC3)c12 (stereo partly drawn) [Compound 343, N-(3-cyano-4-(6-cyclopropyl-4-(1-(2,2-difluorocyclopropane-1-carbonyl)-1,6-diazaspiro[3.4]octan-6-yl)-8-fluoro-2-(((2R,7aS)-2-fluorotetrahydro-1H-pyrrolizin-7a(5H)-yl)methoxy)-5-oxo-5,6-dihydropyrido[4,3-d]pyrimidin-7-yl)-7-fluorobenzo[b]thiophen-2-yl)-2,2-difluorocyclopropane-1-carboxamide] |  |  |  |
| < 5 | < 5 | < 5 | Cc1nc(C)n(C(=O)N2CCC23CCN(c2nc(OC[C@@]45CCCN4C[C@H](F)C5)nc4c(F)c(-c5ccc(F)c6sc(N)c(C#N)c56)c(Cl)cc24)C3)n1 (stereo partly drawn) [Compound 226, 2-amino-4-(6-chloro-4-(1-(3,5-dimethyl-1H-1,2,4-triazole-1-carbonyl)-1,6-diazaspiro[3.4]octan-6-yl)-8-fluoro-2-(((2R,7aS)-2-fluorotetrahydro-1H-pyrrolizin-7a(5H)-yl)methoxy)quinazolin-7-yl)-7-fluorobenzo[b]thiophene-3-carbonitrile] |  |  |  |
| > 5 | < 5 | < 5 | C#Cc1c(F)ccc2cc(O)cc(-c3ncc4c(N5CCC6(CCN6)C5)nc(O[C@@H](C)[C@@H]5CCCN5C)nc4c3F)c12 (stereo partly drawn) [Compound 239, 5-ethynyl-6-fluoro-4-(8-fluoro-2-((S)-1-((S)-1-methylpyrrolidin-2-yl)ethoxy)-4-(1,6-diazaspiro[3.4]octan-6-yl)pyrido[4,3-d]pyrimidin-7-yl)naphthalen-2-ol] |  |  |  |
| < 5 | < 5 | < 5 | Cc1nc(C(C)C)nn1C(=O)N1CCOCC12CCN(c1nc(OC[C@@]34CCCN3C[C@H](F)C4)nc3c(F)c(-c4ccc(F)c5sc(N)c(C#N)c45)c(Cl)cc13)C2 (stereo partly drawn) [Compound 337, 2-Amino-4-(6-chloro-8-fluoro-2-(((2R,7aS)-2-fluorotetrahydro-1H-pyrrolizin-7a(5H)-yl)methoxy)-4-(6-(3-isopropyl-5-methyl-1H-1,2,4-triazole-1-carbonyl)-9-oxa-2,6-diazaspiro[4.5]decan-2-yl)quinazolin-7-yl)-7-fluorobenzo[b]thiophene-3-carbonitrile] |  |  |  |
| < 5 | < 5 | < 5 | C#Cc1c(F)ccc2cc(O)cc(-c3ncc4c(N5CCC6(CCN6)C5)nc(OC[C@@]56CCCN5C[C@H](F)C6)nc4c3F)c12 (stereo partly drawn) [Compound 268, 5-ethynyl-6-fluoro-4-(8-fluoro-2-(((2R,7aS)-2-fluorotetrahydro-1H-pyrrolizin-7a(5H)-yl)methoxy)-4-(1,6-diazaspiro[3.4]octan-6-yl)pyrido[4,3-d]pyrimidin-7-yl)naphthalen-2-ol] |  |  |  |
| < 5 | < 5 | < 5 | C#Cc1c(F)ccc2cc(O)cc(-c3ccc4c(N5CCC6(CCN6C(=O)n6cncn6)C5)nc(OC[C@@]56CCCN5C[C@H](F)C6)nc4c3F)c12 (stereo partly drawn) [Compound 277, (6-(7-(8-ethynyl-7-fluoro-3-hydroxynaphthalen-1-yl)-8-fluoro-2-(((2R,7aS)-2-fluorotetrahydro-1H-pyrrolizin-7a(5H)-yl)methoxy)quinazolin-4-yl)-1,6-diazaspiro[3.4]octan-1-yl)(1H-1,2,4-triazol-1-yl)methanone] |  |  |  |
| < 5 | < 5 | < 5 | N#Cc1c(N)sc2c(F)ccc(-c3c(Cl)cc4c(N5CCC6(CCCN6C(=O)C6CC6(F)F)CC5)nc(OC[C@@]56CCCN5C[C@H](F)C6)nc4c3F)c12 (stereo partly drawn) [Compound 341, 2-amino-4-(6-chloro-4-(1-(2,2-difluorocyclopropane-1-carbonyl)-1,8-diazaspiro[4.5]decan-8-yl)-8-fluoro-2-(((2R,7aS)-2-fluorotetrahydro-1H-pyrrolizin-7a(5H)-yl)methoxy)quinazolin-7-yl)-7-fluorobenzo[b]thiophene-3-carbonitrile] |  |  |  |
|  |  |  | N#Cc1c(N)sc2c(F)ccc(-c3c(Cl)cc4c(N5CCC6(CCN6C(=O)Oc6ccc([N+](=O)[O-])cc6)C5)nc(OC[C@@]56CCCN5C[C@H](F)C6)nc4c3F)c12 (stereo partly drawn) [Compound 298, 4-nitrophenyl 6-(7-(2-amino-3-cyano-7-fluorobenzo[b]thiophen-4-yl)-6-chloro-8-fluoro-2-(((2R,7aS)-2-fluorotetrahydro-1H-pyrrolizin-7a(5H)-yl)methoxy)quinazolin-4-yl)-1,6-diazaspiro[3.4]octane-1-carboxylate] | < 5 | < 5 | < 5 |
| < 5 | < 5 | < 5 | C[C@H]1CN(C(=O)n2cnc(F)n2)[C@]12CCN(c1nc(OC[C@@]34CCCN3C[C@H](F)C4)nc3c(F)c(-c4ccc(F)c5sc(N)c(C#N)c45)c(Cl)cc13)C2 [Compound 255, 2-amino-4-(6-chloro-8-fluoro-4-((3S,4R)-1-(3-fluoro-1H-1,2,4-triazole-1-carbonyl)-3-methyl-1,6-diazaspiro[3.4]octan-6-yl)-2-(((2R,7aS)-2-fluorotetrahydro-1H-pyrrolizin-7a(5H)-yl)methoxy)quinazolin-7-yl)-7-fluorobenzo[b]thiophene-3-carbonitrile] |  |  |  |
| > 5 | < 5 | < 5 | N#Cc1c(N)sc2c(F)ccc(-c3c(Cl)cc4c(N5CCC6(CCN6C(=O)OC(C(F)(F)F)C(F)(F)F)C5)nc(OC[C@@]56CCCN5C[C@H](F)C6)nc4c3F)c12 (stereo partly drawn) [Compound 237, 1,1,1,3,3,3-hexafluoropropan-2-yl 6-(7-(2-amino-3-cyano-7-fluorobenzo[b]thiophen-4-yl)-6-chloro-8-fluoro-2-(((2R,7aS)-2-fluorotetrahydro-1H-pyrrolizin-7a(5H)-yl)methoxy)quinazolin-4-yl)-1,6-diazaspiro[3.4]octane-1-carboxylate] |  |  |  |
| < 5 | < 5 | < 5 | Nc1nc2c(-c3c(Cl)cc4c(N5CC6(CCN6C(=O)n6cncn6)C5)nc(OC[C@@]56CCCN5C[C@H](F)C6)nc4c3F)ccc(F)c2s1 [Compound 273, (6-(7-(2-amino-7-fluorobenzo[d]thiazol-4-yl)-6-chloro-8-fluoro-2-(((2R,7aS)-2-fluorotetrahydro-1H-pyrrolizin-7a(5H)-yl)methoxy)quinazolin-4-yl)-1,6-diazaspiro[3.3]heptan-1-yl)(1H-1,2,4-triazol-1-yl)methanone] |  |  |  |
| < 5 | < 5 | < 5 | N#Cc1c(N)sc2c(F)ccc(-c3c(Cl)cc4c(N5CCC6(CCN6C(=O)OC(CO)C(F)(F)F)C5)nc(OC[C@@]56CCCN5C[C@H](F)C6)nc4c3F)c12 (stereo partly drawn) [Compound 345, 1,1,1-trifluoro-3-hydroxypropan-2-yl 6-(7-(2-amino-3-cyano-7-fluorobenzo[b]thiophen-4-yl)-6-chloro-8-fluoro-2-(((2R,7aS)-2-fluorotetrahydro-1H-pyrrolizin-7a(5H)-yl)methoxy)quinazolin-4-yl)-1,6-diazaspiro[3.4]octane-1-carboxylate] |  |  |  |
| < 5 | < 5 | < 5 | N#Cc1c(N)sc2c(F)ccc(-c3c(Cl)cc4c(N5CCC6(C5)N(C(=O)n5cncn5)CC6(F)F)nc(OC[C@@]56CCCN5C[C@H](F)C6)nc4c3F)c12 (stereo partly drawn) [Compound 283, 2-amino-4-(6-chloro-4-(3,3-difluoro-1-(1H-1,2,4-triazole-1-carbonyl)-1,6-diazaspiro[3.4]octan-6-yl)-8-fluoro-2-(((2R,7aS)-2-fluorotetrahydro-1H-pyrrolizin-7a(5H)-yl)methoxy)quinazolin-7-yl)-7-fluorobenzo[b]thiophene-3-carbonitrile] |  |  |  |

| Compound | IC50 [1, 4] [µM] | IC50 [2, 5] [µM] | IC50 [3, 6] [µM] | IC50 [1] [µM] | IC50 [2] [µM] | IC50 ([3]; PPI-HTRF-5 nM KRAS G12S) [µM] |
| --- | --- | --- | --- | --- | --- | --- |
| N#Cc1c(N)sc2c(F)ccc(-c3c(Cl)cc4c(N5CCC6(CC5)CCN6C(=O)[C@@H]5N[C@H]5C5CC5)nc(OC[C@@]56CCCN5C[C@H](F)C6)nc4c3F)c12 [Compound 262, 2-amino-4-(6-chloro-4-(1-((2R,3S)-3-cyclopropylaziridine-2-carbonyl)-1,7-diazaspiro[3.5]nonan-7-yl)-8-fluoro-2-(((2R,7aS)-2-fluorotetrahydro-1H-pyrrolizin-7a(5H)-yl)methoxy)quinazolin-7-yl)-7-fluorobenzo[b]thiophene-3-carbonitrile] | < 5 | < 5 | < 5 |  |  |  |
| N#Cc1c(N)sc2c(F)ccc(-c3c(Cl)cc4c(N5CCC6(CCN6C(=O)[C@@H]6N[C@H]6C6CC6)C5)nc(OC[C@@]56CCCN5C[C@H](F)C6)nc4c3F)c12 (stereo partly drawn) [Compound 296, 2-amino-4-(6-chloro-4-(1-((2R,3S)-3-cyclopropylaziridine-2-carbonyl)-1,6-diazaspiro[3.4]octan-6-yl)-8-fluoro-2-(((2R,7aS)-2-fluorotetrahydro-1H-pyrrolizin-7a(5H)-yl)methoxy)quinazolin-7-yl)-7-fluorobenzo[b]thiophene-3-carbonitrile] | < 5 | < 5 | < 5 |  |  |  |

Reference: patent US20240116951A1, “HETEROCYCLIC COMPOUNDS AND USES THEREOF” (Kumquat Biosciences Inc., priority 2022, published 2024)
